# How the values were obtained:
# [1] = target: T1, human liver cytosolic AOX1 (Homo sapiens, UniProt Q06278); test: Effects of a competing AOX1 substrate and a competitive AOX1 inhibitor on AOX1 inactivation; type: biochemical; parameters: Enzymatic reaction was initiated by adding human liver cytosol (100 μg); tissue Corning, Inc. (Gentest brand) 452115; host or cells: human liver cytosol, pool of 150 donors; settings: human liver cytosol; for effect of O^6-benzylguanine on extent of AOX1 inactivation: O^6-benzylguanine 120, 240 (480) μM; for effect of O^6-benzylguanine on extent of AOX1 inactivation / effect of gefitinib on extent of AOX1 inactivation: carbazeran 4-oxidation; for effect of gefitinib on extent of AOX1 inactivation: gefitinib 3, 10, 30 μM
# T1 sequence (Q06278 1-1338): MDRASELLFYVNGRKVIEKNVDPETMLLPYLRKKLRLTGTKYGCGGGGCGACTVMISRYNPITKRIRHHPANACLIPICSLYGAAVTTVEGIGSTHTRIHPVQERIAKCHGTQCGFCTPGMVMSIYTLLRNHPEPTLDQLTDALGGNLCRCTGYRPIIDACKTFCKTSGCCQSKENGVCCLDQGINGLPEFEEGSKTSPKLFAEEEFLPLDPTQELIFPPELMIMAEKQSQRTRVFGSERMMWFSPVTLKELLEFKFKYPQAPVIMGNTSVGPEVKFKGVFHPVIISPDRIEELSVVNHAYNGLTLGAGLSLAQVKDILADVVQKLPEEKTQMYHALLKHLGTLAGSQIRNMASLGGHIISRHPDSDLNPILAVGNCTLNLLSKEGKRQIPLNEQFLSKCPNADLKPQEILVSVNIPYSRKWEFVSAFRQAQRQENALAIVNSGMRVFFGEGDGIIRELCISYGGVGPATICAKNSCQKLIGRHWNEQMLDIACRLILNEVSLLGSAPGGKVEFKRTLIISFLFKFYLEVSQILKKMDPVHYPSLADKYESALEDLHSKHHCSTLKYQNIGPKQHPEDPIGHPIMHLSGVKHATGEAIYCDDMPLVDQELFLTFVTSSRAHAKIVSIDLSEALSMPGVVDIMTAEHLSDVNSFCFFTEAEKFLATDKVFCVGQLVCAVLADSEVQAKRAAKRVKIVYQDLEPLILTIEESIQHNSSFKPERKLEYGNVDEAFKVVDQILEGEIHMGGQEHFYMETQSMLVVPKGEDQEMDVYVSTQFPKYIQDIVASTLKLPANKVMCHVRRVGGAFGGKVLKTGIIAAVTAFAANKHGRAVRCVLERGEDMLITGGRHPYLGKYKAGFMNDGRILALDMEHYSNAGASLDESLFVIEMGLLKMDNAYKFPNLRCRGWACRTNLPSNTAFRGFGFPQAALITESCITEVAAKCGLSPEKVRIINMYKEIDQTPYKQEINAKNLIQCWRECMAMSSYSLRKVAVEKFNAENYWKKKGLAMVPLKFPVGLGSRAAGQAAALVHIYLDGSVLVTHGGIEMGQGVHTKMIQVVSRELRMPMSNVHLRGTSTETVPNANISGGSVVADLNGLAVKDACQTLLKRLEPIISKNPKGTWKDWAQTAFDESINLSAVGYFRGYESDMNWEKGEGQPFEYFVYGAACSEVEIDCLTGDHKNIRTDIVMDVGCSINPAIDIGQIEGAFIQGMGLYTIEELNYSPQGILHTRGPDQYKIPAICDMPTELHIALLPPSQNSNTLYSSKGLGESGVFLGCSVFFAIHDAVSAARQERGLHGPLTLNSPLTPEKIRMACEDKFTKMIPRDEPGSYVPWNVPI
# Experimental: The molar ratio of O^6-benzylguanine (120, 240, and 480 μM) to 3-vinylerlotinib (10 μM) was 12, 24, and 48, O^6-benzylguanine to 4′-methylerlotinib (3 μM) was 40, 80, and 160, and O^6-benzylguanine to 2-methylerlotinib (1 μM) was 120, 240, and 480, respectively. […] Each standard incubation mixture was subjected to the same procedures as described in Enzyme Inactivation Experiments. The residual AOX1 enzyme activity was determined by the carbazeran 4-oxidation or O^6-benzylguanine 8-oxidation assay.
# [2] = Rapid equilibrium dialysis, nonspecific binding to human liver cytosol
# Experimental: Nonspecific binding of test chemicals to human liver cytosol (100 μg) was determined using a Rapid Equilibrium Dialysis Kit (Thermo Fisher Scientific), as described in detail in our previous publication.[27]
# MOLPHA- D-25- 00208 Supplemental Materials. Kweh et al. Mol Pharmacol […]
# inhibition constants (Ki,u ) for the inhibition of human liver cytosolic carbazeran 4-oxidation A mixture containing a test chemical (10 µM; dissolved in a final concentration of 0.5% v/v DMSO) and human liver cytosol (100 µg total cytosolic protein) were dialyzed as described under Materials and Methods. Chemical concentr ation in each chamber wa s quantified by UPLC-MS/MS. Data are exp ressed as mean ± S.D. of three independent experiments. […]
# a, K I,u = f u × K I, where fu was calcul ated from 10 µ M of chemicals in human liver cytosol.
# [3] = target: T1, human liver cytosolic AOX1; type: biochemical; parameters: Enzymatic reaction was initiated by adding human liver cytosol (100 μg); tissue Corning, Inc. (Gentest brand) 452115; host or cells: human liver cytosol, pool of 150 donors; settings: potassium ferricyanide 2 mM, 0 or 6 min preincubation
# Experimental: The residual AOX1 enzyme activity was determined by the carbazeran 4-oxidation assay.
# A test chemical at a concentration described above was incubated with human liver cytosol (100 μg protein) at 37 °C for 0 or 6 minutes. […] After 10-minute incubation, an aliquot (50 μL) of the […] (total volume of 200 μL) containing potassium phosphate buffer and carbazeran (15 μM), which yielded a 4-fold dilution of the secondary incubation mixture. The residual AOX1 enzyme activity was determined as described above.
# [4] = 10 μM, human liver cytosol 100 μg protein, 4-hour dialysis
SMILES,effect of O^6-benzylguanine on extent of AOX1 inactivation [1],effect of gefitinib on extent of AOX1 inactivation [1],"Fraction Unbound (fu) ([2]; human, cytosol)",effect of coincubation or postincubation with potassium ferricyanide on AOX1 inactivation [3],decrease in carbazeran 4-oxidation in the presence of gefitinib ([1]; inactivator 1.5 μM + 3 μM gefitinib) [%],decrease in carbazeran 4-oxidation in the presence of gefitinib ([1]; inactivator 1.5 μM + 10 μM gefitinib) [%],decrease in carbazeran 4-oxidation in the presence of gefitinib ([1]; inactivator 1.5 μM + 30 μM gefitinib) [%],"fraction unbound at 4 h, 10 μM ([2]; human, human liver cytosol)","Fraction Unbound (fu) [2, 4]"
"C#Cc1cccc(Nc2nc(C)nc3cc(OCCOC)c(OCCOC)cc23)c1 [2-Methylerlotinib, 2-methylerlotinib]",attenuated,attenuated,0.51 ± 0.07,not increased or decreased,–,–,–,–,–
"C=Cc1cccc(Nc2ncnc3cc(OCCOC)c(OCCOC)cc23)c1 [3-Vinylerlotinib, 3-vinylerlotinib]",attenuated,attenuated,0.78 ± 0.04,not increased or decreased,–,–,–,–,–
"C#Cc1cc(Nc2ncnc3cc(OCCOC)c(OCCOC)cc23)ccc1C [4′-Methylerlotinib, 4′-methylerlotinib]",attenuated,attenuated,0.73 ± 0.05,not increased or decreased,–,–,–,–,–
C#Cc1cccc(Nc2ncnc3cc(OCCOC)c(OCCOC)cc23)c1 [Erlotinib],attenuated,–,–,not increased or decreased,73,55,47,0.56,–
"C#Cc1cccc(Nc2ncnc3cc(OCCOC)c(OCCO)cc23)c1 [O-Desmethylerlotinib, O-desmethylerlotinib]",attenuated,attenuated,–,not increased or decreased,–,–,–,–,0.84
"C#Cc1cccc(Nc2ncnc3cc(OCCO)c(OCCO)cc23)c1 [O-Didesmethylerlotinib, O-didesmethylerlotinib]",attenuated,attenuated,–,not increased or decreased,–,–,–,–,0.84
